From US10392422B2, “Macrocyclic broad spectrum antibiotics” (priority 2014, dated 2019)
≈ marks a conversion by molar mass, not a printed value. Like-named read-outs stand apart in the source and are kept apart here.

What was measured:
Experiment in all cases: MIC, broth micro-dilution technique (CLSI)
[1] = tested on: Methicillin Resistant Staphylococcus aureus strain USA 300 (NRS384); type: cell-based; details: for MIC: Staphylococcus aureus, 22 h, read-out: MIC (μg/mL) S. aureus
Protocol: (§1) In vitro antimicrobial activity of each compound was determined by measuring minimal inhibitor concentrations (MICs) using the broth micro-dilution technique as approved by the Clinical and Laboratory Standards Institute (CLSI) (Methods for Dilution Antimicrobial Susceptibility Tests for Bacteria that Grow Aerobically; Approved Standard—Eighth Edition. CLSI document M07-A8. Wayne, Pa.: Clinical and Laboratory Standards; 2009). Antibacterial activity was measured against three strains of bacteria: a Methicillin Resistant Staphylococcus aureus strain USA 300 (NRS384); a MRSA COL (NRS100), another Methicillin Resistant Staphylococcus aureus strain; and a strain of Escherichia coli MC4100 harboring the IMP4213, which results in increased outer-membrane permeability (B Martin and Silhavy T. Imp/OstA is required for cell envelope biogenesis in Escherichia coli. (2002) Molecular Microbiology, 45(5), 1289-1302). Cells were inoculated onto plates of Trypyticase Soy Agar or Luria Agar respectively and grown at 35° C. for 20 hours. Inocula suspensions were prepared by scraping cells into 1 ml of testing media (cation adjusted Mueller Hinton Broth supplemented with 0.002% v/v Tween-80) and diluting to a final OD600 nm of 0.01.
(§2) Test compounds were prepared in DMSO at a concentration of 10 mg/ml. These compound stocks were diluted into testing media at a concentration of 64 μg/ml and serial 2-fold dilutions were made in the same media, in 96-well U bottom microtiter dishes, for a total of 10 compound concentrations (Table 1). In modified protocols (Table 2), compound stocks were diluted into testing media at a concentration of 4 μg/mL and serial 2-fold dilutions were made in the same media, in 96-well U bottom microtiter dishes, for a total of 10 compound concentrations. Inocula suspensions were added to the 2-fold serial dilutions of test compounds to a final density of OD OD600 nm of 0.0005 and incubated at 35° C. for 22 hours. […] The results from the protocol starting from a concentration of 64 µg/mL are listed in Table 1 and the results from the modified protocol are shown in Table 2.

[2] = tested on: Escherichia coli MC4100 harboring the IMP4213; type: cell-based; details: 35° C., 22 hours; for MIC: Escherichia coli, 22 h, read-out: MIC (μg/mL) E. coli, Table 1 protocol: serial 2-fold dilutions starting from 64 μg/ml
Protocol: as §1, §2

[3] = tested on: MRSA COL (NRS100); type: cell-based, Staphylococcus aureus; details: for MIC: Staphylococcus aureus, 22 h, read-out: MIC (μg/mL) (COL)
Protocol: as §1, §2

[4] = Table 1 protocol: serial 2-fold dilutions starting from 64 μg/ml, 35° C., 22 hours

Compound	MIC [1, 4] [µg/mL]	MIC [2] [µg/mL]	MIC [1] [µg/mL]	MIC [3] [µg/mL]	other results
C[C@@H]1NC(=O)[C@@H](N(C)C(=O)[C@H](CCCCN)NC(=O)c2ccc(-c3ccc(Cl)cc3)cc2)c2ccc(O)c(c2)-c2cc(ccc2O)C[C@@H](C(=O)N[C@@H](C)C(=O)C2CO2)NC1=O (some centres unmarked) [Compound 104]	2.8 (≈ 3.28 µM)	2 (≈ 2.34 µM)	–	–	MIC [3, 4]: 2 µg/mL (≈ 2.34 µM)
CC(=O)[C@H](C)NC(=O)[C@@H]1Cc2ccc(O)c(c2)-c2cc(ccc2O)[C@H](N(C)C(=O)[C@H](CCCCN)NC(=O)c2ccc(-c3ccc(Cl)cc3)cc2)C(=O)N[C@@H](C)C(=O)N1 [Compound 109]	–	64 (≈ 77.5 µM)	4 (≈ 4.85 µM)	1 (≈ 1.21 µM)	–
CCCCCCCCCCNCCC(=O)N[C@@H](CCCCN)C(=O)N(C)[C@@H]1C(=O)N[C@@H](C)C(=O)N[C@H](C(=O)O)Cc2ccc(O)c(c2)-c2cc1ccc2O [Compound 110]	–	64 (≈ 85 µM)	29 (≈ 38.5 µM)	8 (≈ 10.6 µM)	–
CCCCCCCCCNCCCC(=O)N[C@@H](CCCCN)C(=O)N(C)[C@@H]1C(=O)N[C@@H](C)C(=O)N[C@H](C(=O)N[C@@H](C)C(C)=O)Cc2ccc(O)c(c2)-c2cc1ccc2O [Compound 111]	23 (≈ 28 µM)	> 64	–	–	MIC [3, 4]: 4 µg/mL (≈ 4.87 µM)
CCCCCCCCCCNCC(=O)N[C@@H](CCCCN)C(=O)N(C)[C@@H]1C(=O)N[C@@H](C)C(=O)N[C@H](C(=O)N[C@@H](C)C(C)=O)Cc2ccc(O)c(c2)-c2cc1ccc2O [Compound 112]	–	–	–	–	MIC (μg/mL) S. aureus [1, 4]: 2.8 µg/mL (≈ 3.47 µM); MIC (μg/mL) E. coli ([2]; Table 1 protocol: serial 2-fold dilutions starting from 64 μg/ml): 64 µg/mL (≈ 79.2 µM); MIC (μg/mL) (COL) [3, 4]: 0.5 µg/mL (≈ 0.619 µM)
CCCCCCCCCCNCCC(=O)N[C@@H](CCCCN)C(=O)N(C)[C@@H]1C(=O)N[C@@H](C)C(=O)N[C@H](C(=O)O)Cc2ccc(O)c(c2)-c2cc1ccc2OCCN [Compound 113]	–	25 (≈ 31.4 µM)	9.5 (≈ 11.9 µM)	2 (≈ 2.51 µM)	–
CCCCCCCCCCNCCC(=O)N[C@@H](CCCCN)C(=O)N(C)[C@@H]1C(=O)N[C@@H](C)C(=O)N[C@H](C(=O)N[C@@H](C)C(C)=O)Cc2ccc(O)c(c2)-c2cc1ccc2O [Compound 114]	–	32 (≈ 38.9 µM)	> 64	1 (≈ 1.22 µM)	–
CCCCCCCCCCNCCC(=O)N[C@@H](CCCCN)C(=O)N(C)[C@@H]1C(=O)N[C@@H](C)C(=O)N[C@H](C(=O)N[C@@H](C)C(=O)COC(C)=O)Cc2ccc(O)c(c2)-c2cc1ccc2OCCN [Compound 116]	–	13 (≈ 14.1 µM)	0.35 (≈ 0.379 µM)	0.063 (≈ 0.0682 µM)	–
CC(=O)OCC(=O)[C@H](C)NC(=O)[C@@H]1Cc2ccc(O)c(c2)-c2cc(ccc2OCCN)[C@H](N(C)C(=O)[C@H](CCCCN)NC(=O)c2ccc(-c3ccc(Cl)cc3)cc2)C(=O)N[C@@H](C)C(=O)N1 [Compound 117]	–	1.6 (≈ 1.73 µM)	0.71 (≈ 0.766 µM)	0.22 (≈ 0.237 µM)	–
C[C@H](NC(=O)[C@@H]1Cc2ccc(O)c(c2)-c2cc(ccc2OCCN)[C@H](N(C)C(=O)[C@H](CCCCN)NC(=O)c2ccc(-c3ccc(Cl)cc3)cc2)C(=O)N[C@@H](C)C(=O)N1)C(=O)CO [Compound 118]	–	2 (≈ 2.26 µM)	1 (≈ 1.13 µM)	0.63 (≈ 0.712 µM)	–
CC(=O)[C@H](C)NC(=O)[C@@H]1Cc2ccc(O)c(c2)-c2cc(ccc2OCCN)[C@H](N(C)C(=O)[C@H](CCCCN)NC(=O)c2ccc(-c3ccc(Cl)cc3)cc2)C(=O)N[C@@H](C)C(=O)N1 [Compound 119]	–	5.3 (≈ 6.1 µM)	1 (≈ 1.15 µM)	0.5 (≈ 0.576 µM)	–
CC(=O)[C@H](C)NC(=O)[C@@H]1Cc2ccc(O)c(c2)-c2cc(ccc2OCC(=O)O)[C@H](N(C)C(=O)[C@H](CCCCN)NC(=O)c2ccc(-c3ccc(Cl)cc3)cc2)C(=O)N[C@@H](C)C(=O)N1 [Compound 120]	–	64 (≈ 72.4 µM)	51 (≈ 57.7 µM)	13 (≈ 14.7 µM)	–
CC(=O)[C@H](C)NC(=O)[C@@H]1Cc2ccc(O)c(c2)-c2cc(ccc2OCCO)[C@H](N(C)C(=O)[C@H](CCCCN)NC(=O)c2ccc(-c3ccc(Cl)cc3)cc2)C(=O)N[C@@H](C)C(=O)N1 [Compound 121]	–	32 (≈ 36.8 µM)	8 (≈ 9.2 µM)	3 (≈ 3.45 µM)	–
C[C@H](NC(=O)[C@@H]1Cc2ccc(O)c(c2)-c2cc(ccc2O)[C@H](N(C)C(=O)[C@H](CCCCN)NC(=O)c2ccc(-c3ccc(Cl)cc3)cc2)C(=O)N[C@@H](C)C(=O)N1)C(=O)CO [Compound 124]	–	16 (≈ 19 µM)	1 (≈ 1.19 µM)	0.5 (≈ 0.594 µM)	–
C[C@H](NCC(=O)[C@H](C)NC(=O)[C@@H]1Cc2ccc(O)c(c2)-c2cc(ccc2O)[C@H](N(C)C(=O)[C@H](CCCCN)NC(=O)c2ccc(-c3ccc(Cl)cc3)cc2)C(=O)N[C@@H](C)C(=O)N1)C(N)=O [Compound 125]	–	–	32 (≈ 35.1 µM)	8 (≈ 8.78 µM)	–
C[C@H](NC(=O)[C@@H]1Cc2ccc(O)c(c2)-c2cc(ccc2O)[C@H](N(C)C(=O)[C@H](CCCCN)NC(=O)c2ccc(-c3ccc(Cl)cc3)cc2)C(=O)N[C@@H](C)C(=O)N1)C(=O)/C=C/c1cc[nH]n1 [Compound 129]	16 (≈ 17.7 µM)	> 64	–	–	MIC [3, 4]: 4 µg/mL (≈ 4.43 µM)
CCOC(=O)CCC(=O)[C@H](C)NC(=O)[C@@H]1Cc2ccc(O)c(c2)-c2cc(ccc2O)[C@H](N(C)C(=O)[C@H](CCCCN)NC(=O)c2ccc(-c3ccc(Cl)cc3)cc2)C(=O)N[C@@H](C)C(=O)N1 [Compound 146]	–	–	16 (≈ 17.6 µM)	8 (≈ 8.78 µM)	–
C[C@H](NC(=O)[C@@H]1Cc2ccc(O)c(c2)-c2cc(ccc2O)[C@H](N(C)C(=O)[C@H](CCCCN)NC(=O)c2ccc(-c3ccc(Cl)cc3)cc2)C(=O)N[C@@H](C)C(=O)N1)C(=O)CCC(N)=O [Compound 148]	–	–	64 (≈ 72.5 µM)	32 (≈ 36.3 µM)	–
C[C@@H]1NC(=O)[C@@H](N(C)C(=O)[C@H](CCCCN)NC(=O)c2ccc(-c3ccc(Cl)cc3)cc2)c2ccc(O)c(c2)-c2cc(ccc2O)C[C@@H](C(=O)N[C@@H](C)C(=O)N2CC(F)(F)C[C@H]2C(N)=O)NC1=O [Compound 174]	9.5 (≈ 9.9 µM)	64 (≈ 66.7 µM)	–	–	–
C[C@@H]1NC(=O)[C@@H](N(C)C(=O)[C@H](CCCCN)NC(=O)c2ccc(-c3ccc(Cl)cc3)cc2)c2ccc(O)c(c2)-c2cc(ccc2O)C[C@@H](C(=O)N[C@@H](C)C(=O)N2CCC[C@H]2C(=O)NCC(N)=O)NC1=O [Compound 178]	32 (≈ 32.6 µM)	–	–	–	MIC [3, 4]: 16 µg/mL (≈ 16.3 µM)
C[C@@H]1NC(=O)[C@@H](N(C)C(=O)[C@H](CCCCN)NC(=O)c2ccc(-c3ccc(Cl)cc3)cc2)c2ccc(O)c(c2)-c2cc(ccc2O)C[C@@H](C(=O)NCC(=O)N2CC[C@H](O)[C@H]2C(N)=O)NC1=O [Compound 180]	64 (≈ 69.2 µM)	64 (≈ 69.2 µM)	–	–	–
CC[C@H](NC(=O)[C@@H]1Cc2ccc(O)c(c2)-c2cc(ccc2O)[C@H](N(C)C(=O)[C@H](CCCCN)NC(=O)c2ccc(-c3ccc(Cl)cc3)cc2)C(=O)N[C@@H](C)C(=O)N1)C(=O)N1CCC[C@H]1C(N)=O [Compound 181]	23 (≈ 24.5 µM)	64 (≈ 68.3 µM)	–	–	–
CONC(=O)[C@@H]1CCCN1C(=O)[C@H](C)NC(=O)[C@@H]1Cc2ccc(O)c(c2)-c2cc(ccc2O)[C@H](N(C)C(=O)[C@H](CCCCN)NC(=O)c2ccc(-c3ccc(Cl)cc3)cc2)C(=O)N[C@@H](C)C(=O)N1 [Compound 185]	–	64 (≈ 67.1 µM)	45 (≈ 47.2 µM)	–	–
CC(=O)[C@H](C)NC(=O)[C@@H]1Cc2ccc(O)c(c2)-c2cc(ccc2OCCN2CCOCC2)[C@H](N(C)C(=O)[C@H](CCCCN)NC(=O)c2ccc(-c3ccc(Cl)cc3)cc2)C(=O)N[C@@H](C)C(=O)N1 [Compound 203]	23 (≈ 24.5 µM)	–	–	–	MIC [3, 4]: 8 µg/mL (≈ 8.52 µM)
CCCCCCCCCCCCCC(=O)N[C@@H](CCN)C(=O)N(C)[C@@H]1C(=O)N[C@@H](C)C(=O)N[C@H](C(=O)O)Cc2ccc(OCCN)c(c2)-c2cc1ccc2OCCN [Compound 299]	–	–	0.19 (≈ 0.235 µM)	0.031 (≈ 0.0383 µM)	–
